This note sets out measurements from ChEMBL document CHEMBL5465560, “Selectivity Literature for EUbOPEN Chemogenomic Library” (2024).

Test [1] has as its target T1, Ephrin type-A receptor 8 (Homo sapiens) (UniProt P29322).
T1 sequence (whole entry): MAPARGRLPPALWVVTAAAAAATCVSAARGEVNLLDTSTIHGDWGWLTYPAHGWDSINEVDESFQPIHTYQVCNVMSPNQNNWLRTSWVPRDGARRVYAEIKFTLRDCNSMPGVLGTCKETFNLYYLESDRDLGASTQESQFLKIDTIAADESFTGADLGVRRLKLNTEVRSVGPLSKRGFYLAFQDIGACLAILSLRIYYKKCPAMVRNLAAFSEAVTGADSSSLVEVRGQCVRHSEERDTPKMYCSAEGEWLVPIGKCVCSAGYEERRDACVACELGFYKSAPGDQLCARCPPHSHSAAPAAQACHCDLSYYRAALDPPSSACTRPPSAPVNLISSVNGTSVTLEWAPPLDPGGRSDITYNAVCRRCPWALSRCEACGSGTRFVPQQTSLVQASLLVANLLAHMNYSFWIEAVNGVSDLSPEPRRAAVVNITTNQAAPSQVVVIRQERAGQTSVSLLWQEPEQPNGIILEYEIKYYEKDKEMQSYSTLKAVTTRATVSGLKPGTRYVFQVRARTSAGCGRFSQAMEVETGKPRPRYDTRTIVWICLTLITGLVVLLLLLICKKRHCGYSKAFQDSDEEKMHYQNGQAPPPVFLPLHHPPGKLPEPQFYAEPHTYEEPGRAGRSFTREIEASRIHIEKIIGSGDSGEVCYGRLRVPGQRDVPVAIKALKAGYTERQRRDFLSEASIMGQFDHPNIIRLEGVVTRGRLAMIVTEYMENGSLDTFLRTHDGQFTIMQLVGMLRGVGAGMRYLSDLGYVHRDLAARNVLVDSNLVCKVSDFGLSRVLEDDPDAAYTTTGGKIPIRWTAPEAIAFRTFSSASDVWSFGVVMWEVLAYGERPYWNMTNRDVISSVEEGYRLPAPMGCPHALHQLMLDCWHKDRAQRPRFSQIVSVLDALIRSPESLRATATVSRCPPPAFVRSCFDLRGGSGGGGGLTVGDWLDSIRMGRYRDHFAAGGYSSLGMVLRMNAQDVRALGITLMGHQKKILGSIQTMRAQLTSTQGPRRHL
The experiment in a line: Selectivity interaction (KinomeScan (DiscoverX)) EUB0001619a EPHA8. The following applies: at 1 µM.

For test [2], the target named is Hepatocyte growth factor receptor (Homo sapiens, UniProt P08581). The following applies: at 10 µM.
The target in test [3] is Insulin-like growth factor 1 receptor (Homo sapiens, UniProt P08069). The test is described as follows: Selectivity interaction (KinomeScan (DiscoverX)) EUB0000666a IGF1R. The following applies: at 10 µM.
The target of test [4] is T2, Phosphatidylinositol 5-phosphate 4-kinase type-2 gamma (Homo sapiens) (UniProt Q8TBX8).
T2 sequence (whole entry): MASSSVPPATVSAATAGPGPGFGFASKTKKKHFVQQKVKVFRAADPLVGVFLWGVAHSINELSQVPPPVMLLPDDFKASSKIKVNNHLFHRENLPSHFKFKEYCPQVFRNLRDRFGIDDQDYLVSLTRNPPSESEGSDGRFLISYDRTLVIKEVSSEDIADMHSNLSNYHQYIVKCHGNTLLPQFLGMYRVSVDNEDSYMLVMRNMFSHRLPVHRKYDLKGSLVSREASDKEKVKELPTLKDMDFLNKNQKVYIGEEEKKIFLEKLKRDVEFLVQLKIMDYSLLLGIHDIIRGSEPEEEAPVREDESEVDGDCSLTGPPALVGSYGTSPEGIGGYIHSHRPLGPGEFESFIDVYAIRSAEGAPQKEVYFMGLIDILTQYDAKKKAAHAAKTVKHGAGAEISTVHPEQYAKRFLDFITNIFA
The experiment in a line: Selectivity interaction (KinomeScan (DiscoverX)) EUB0001550a PIP4K2C. The following applies: at 1 µM.

Test [5] addresses Serine/threonine-protein kinase PAK 6 (Homo sapiens) (UniProt Q9NQU5). As to conditions: at 10 µM.
Test [6] concerns the target T3, Muscle, skeletal receptor tyrosine-protein kinase (Homo sapiens) (UniProt O15146).
T3 sequence (whole entry): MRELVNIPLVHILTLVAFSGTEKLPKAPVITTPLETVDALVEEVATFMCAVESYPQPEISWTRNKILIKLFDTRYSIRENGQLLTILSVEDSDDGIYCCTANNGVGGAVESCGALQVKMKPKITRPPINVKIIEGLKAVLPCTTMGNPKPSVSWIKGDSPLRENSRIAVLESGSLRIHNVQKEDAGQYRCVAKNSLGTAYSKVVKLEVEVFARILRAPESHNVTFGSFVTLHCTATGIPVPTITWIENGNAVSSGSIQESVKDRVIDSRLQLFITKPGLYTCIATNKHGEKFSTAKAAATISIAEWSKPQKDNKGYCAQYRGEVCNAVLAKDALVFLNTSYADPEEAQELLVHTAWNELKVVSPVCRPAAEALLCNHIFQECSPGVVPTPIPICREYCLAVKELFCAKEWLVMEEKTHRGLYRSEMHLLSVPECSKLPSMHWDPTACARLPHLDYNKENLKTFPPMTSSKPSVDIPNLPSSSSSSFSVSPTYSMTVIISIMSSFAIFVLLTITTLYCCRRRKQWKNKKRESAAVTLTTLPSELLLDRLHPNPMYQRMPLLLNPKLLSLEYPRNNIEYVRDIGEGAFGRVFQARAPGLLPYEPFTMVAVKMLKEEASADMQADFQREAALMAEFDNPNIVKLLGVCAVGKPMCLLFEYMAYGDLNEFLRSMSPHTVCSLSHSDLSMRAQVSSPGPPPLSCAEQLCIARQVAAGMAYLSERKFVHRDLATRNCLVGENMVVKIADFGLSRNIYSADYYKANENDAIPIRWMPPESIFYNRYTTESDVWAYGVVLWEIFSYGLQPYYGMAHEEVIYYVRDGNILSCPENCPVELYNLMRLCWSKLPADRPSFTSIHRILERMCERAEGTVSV
The experiment in a line: Selectivity interaction (KinomeScan (DiscoverX)) EUB0000655a MUSK. The following applies: at 10 µM.

The target of test [7] is Mitogen-activated protein kinase 14 (Homo sapiens, UniProt Q16539). The test is described as follows: Selectivity interaction (KinomeScan (DiscoverX)) EUB0001079a MAPK14. The following applies: at 1 µM.
Chain of Mitogen-activated protein kinase 14 (Q16539 whole entry): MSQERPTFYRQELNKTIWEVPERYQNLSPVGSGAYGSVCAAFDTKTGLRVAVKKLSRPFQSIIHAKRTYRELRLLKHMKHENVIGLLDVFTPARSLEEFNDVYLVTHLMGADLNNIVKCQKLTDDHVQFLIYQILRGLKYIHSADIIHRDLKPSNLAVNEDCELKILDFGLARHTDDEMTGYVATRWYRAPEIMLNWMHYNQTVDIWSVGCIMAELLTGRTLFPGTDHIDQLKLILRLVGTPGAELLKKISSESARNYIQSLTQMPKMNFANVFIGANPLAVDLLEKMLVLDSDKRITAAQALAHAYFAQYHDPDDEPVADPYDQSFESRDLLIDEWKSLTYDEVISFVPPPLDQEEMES

Chain of Hepatocyte growth factor receptor (P08581 whole entry): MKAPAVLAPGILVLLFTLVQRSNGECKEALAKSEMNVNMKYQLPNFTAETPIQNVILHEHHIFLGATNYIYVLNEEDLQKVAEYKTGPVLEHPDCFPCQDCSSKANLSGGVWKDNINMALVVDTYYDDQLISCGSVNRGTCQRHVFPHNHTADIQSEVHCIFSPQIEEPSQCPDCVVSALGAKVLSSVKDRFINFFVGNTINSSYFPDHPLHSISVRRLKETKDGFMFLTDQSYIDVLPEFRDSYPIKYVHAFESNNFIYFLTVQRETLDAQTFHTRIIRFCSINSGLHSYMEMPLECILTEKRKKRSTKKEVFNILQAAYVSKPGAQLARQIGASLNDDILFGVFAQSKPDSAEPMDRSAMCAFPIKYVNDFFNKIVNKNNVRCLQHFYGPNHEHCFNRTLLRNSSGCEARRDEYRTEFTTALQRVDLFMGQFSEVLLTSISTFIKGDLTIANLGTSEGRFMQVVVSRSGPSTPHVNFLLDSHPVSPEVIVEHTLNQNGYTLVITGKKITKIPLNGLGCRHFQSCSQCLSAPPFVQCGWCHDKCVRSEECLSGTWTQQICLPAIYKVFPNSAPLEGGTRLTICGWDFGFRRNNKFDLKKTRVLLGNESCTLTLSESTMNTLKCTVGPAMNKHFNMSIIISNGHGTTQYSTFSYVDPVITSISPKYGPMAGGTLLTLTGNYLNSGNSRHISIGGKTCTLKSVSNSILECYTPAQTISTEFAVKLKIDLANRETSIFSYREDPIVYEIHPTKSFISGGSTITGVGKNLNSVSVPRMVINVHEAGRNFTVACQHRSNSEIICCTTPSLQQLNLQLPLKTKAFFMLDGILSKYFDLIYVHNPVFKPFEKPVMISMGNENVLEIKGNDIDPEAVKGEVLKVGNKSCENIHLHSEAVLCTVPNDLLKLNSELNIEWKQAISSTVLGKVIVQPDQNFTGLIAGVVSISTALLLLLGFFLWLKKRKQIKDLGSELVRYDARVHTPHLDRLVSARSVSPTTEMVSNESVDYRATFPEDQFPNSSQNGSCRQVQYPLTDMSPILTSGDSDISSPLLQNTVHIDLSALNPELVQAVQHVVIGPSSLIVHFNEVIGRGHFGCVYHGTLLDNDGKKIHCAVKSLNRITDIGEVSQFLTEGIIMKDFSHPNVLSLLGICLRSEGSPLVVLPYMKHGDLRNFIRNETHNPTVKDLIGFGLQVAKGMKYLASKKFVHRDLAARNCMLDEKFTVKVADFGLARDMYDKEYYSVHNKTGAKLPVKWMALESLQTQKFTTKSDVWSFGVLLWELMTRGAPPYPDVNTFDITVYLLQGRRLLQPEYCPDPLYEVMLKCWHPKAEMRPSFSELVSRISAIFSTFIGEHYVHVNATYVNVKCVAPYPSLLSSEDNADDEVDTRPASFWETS
Chain of Serine/threonine-protein kinase PAK 6 (Homo sapiens) (Q9NQU5 whole entry, looked up): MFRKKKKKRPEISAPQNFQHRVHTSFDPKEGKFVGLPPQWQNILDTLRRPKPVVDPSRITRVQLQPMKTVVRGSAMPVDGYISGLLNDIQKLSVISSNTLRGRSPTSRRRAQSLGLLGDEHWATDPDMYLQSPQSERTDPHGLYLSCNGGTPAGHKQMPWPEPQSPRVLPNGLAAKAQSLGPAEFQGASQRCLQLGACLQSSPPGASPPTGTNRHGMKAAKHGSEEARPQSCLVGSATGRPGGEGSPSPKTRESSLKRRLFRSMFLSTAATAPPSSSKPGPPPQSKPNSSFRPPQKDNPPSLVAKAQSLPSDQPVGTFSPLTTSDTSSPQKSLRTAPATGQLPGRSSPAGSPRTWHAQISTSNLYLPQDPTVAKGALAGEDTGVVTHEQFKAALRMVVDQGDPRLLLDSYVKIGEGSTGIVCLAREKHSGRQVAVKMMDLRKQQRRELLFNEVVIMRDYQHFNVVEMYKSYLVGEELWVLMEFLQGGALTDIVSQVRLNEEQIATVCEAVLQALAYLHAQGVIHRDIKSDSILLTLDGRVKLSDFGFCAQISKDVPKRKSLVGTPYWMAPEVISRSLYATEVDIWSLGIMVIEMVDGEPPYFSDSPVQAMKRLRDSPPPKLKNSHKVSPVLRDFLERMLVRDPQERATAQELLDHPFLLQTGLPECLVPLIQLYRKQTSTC
Chain of Insulin-like growth factor 1 receptor (P08069 31-736 limits assumed): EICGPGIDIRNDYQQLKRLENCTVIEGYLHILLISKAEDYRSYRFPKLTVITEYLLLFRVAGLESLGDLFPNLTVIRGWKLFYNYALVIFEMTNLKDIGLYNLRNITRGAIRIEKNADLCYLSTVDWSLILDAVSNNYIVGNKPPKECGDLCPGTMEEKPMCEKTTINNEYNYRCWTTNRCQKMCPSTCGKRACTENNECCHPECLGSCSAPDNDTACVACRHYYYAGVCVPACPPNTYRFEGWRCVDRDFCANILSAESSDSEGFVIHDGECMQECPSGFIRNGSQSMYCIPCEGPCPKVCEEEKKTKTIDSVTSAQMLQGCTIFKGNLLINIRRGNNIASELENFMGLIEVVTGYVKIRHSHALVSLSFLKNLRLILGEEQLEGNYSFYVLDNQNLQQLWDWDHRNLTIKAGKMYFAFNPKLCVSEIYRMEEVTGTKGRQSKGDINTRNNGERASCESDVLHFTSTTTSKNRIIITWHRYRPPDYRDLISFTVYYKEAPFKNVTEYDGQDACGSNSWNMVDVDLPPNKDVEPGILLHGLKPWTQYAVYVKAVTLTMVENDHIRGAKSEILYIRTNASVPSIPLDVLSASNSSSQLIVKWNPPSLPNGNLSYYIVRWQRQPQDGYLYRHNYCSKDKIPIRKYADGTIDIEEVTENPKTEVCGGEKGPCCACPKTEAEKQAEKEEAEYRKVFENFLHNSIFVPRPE
Chain of Insulin-like growth factor 1 receptor (P08069 741-1367 limits assumed): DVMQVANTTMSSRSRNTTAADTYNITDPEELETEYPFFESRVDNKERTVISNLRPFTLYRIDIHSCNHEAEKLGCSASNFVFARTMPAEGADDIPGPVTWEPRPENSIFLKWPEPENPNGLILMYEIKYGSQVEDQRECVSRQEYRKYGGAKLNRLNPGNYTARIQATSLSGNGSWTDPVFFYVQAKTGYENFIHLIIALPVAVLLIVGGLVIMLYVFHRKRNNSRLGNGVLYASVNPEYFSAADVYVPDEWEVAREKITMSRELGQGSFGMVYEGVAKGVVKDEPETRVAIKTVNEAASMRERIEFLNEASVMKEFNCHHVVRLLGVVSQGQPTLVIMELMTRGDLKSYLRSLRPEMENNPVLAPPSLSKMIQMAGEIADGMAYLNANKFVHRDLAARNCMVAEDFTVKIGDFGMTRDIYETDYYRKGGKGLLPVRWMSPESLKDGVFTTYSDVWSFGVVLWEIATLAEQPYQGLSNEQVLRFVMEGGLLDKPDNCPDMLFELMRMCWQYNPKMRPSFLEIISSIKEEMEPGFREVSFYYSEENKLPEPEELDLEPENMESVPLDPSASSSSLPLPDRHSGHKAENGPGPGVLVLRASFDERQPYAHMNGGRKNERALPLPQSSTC

In test [1], `N#Cc1cccc(-c2c[nH]c3ncnc(N4CCOCC4)c23)c1` registered a % of control of 100%.
`CCN(CC)CCCCNc1ncc2cc(-c3cc(OC)cc(OC)c3)c(NC(=O)NC(C)(C)C)nc2n1`: in test [2], the % of control worked out at 100%.
`O=C(NOC[C@H](O)CO)c1ccc(F)c(F)c1Nc1ccc(I)cc1F` showed a % of control in test [3] of 87%.
`CN(C)CC#Cc1ccc2[nH]c3c(c2c1)-c1nc(N)ncc1CCC3` showed a % of control in test [4] of 53%.
`Cc1cc([C@@H](C)Nc2ccccc2C(=O)O)c2nc(N3CCOCC3)cc(=O)n2c1` [AZD-6482] registered a % of control in test [5] of 93%.
`CN(C)CCOc1ccc(-c2nc(-c3ccncc3)c(-c3ccc4c(c3)CC/C4=N\O)[nH]2)cc1` had a % of control in test [6] of 98%.
On to `Nc1cnc(N2CCc3cc(S(=O)(=O)Nc4c(F)cc(Cl)cc4F)cc(N4CCCC4=O)c32)nc1` [TP-020n], for which the % of control in test [7] is 100%.
